According to patent US20260250318A1, “COMPOSITIONS AND METHODS FOR CROSSING THE BLOOD BRAIN BARRIER” (VOYAGER THERAPEUTICS, INC., priority 2022, published 2026):

Experiments:
Settings in all cases: synthetic library passage 3, intravenous, relative to wild-type AAV9
[1] = test system: brain, spinal cord, and DRG of the NHPs; experiment: NGS fold enrichment of synthetic library (passage 3) in NHPs, first cross-species screen; format: in vivo, cynomolgus macaques (Macaca fascicularis)
Procedure, shortened: (§1)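 Passage-3 synthetic capsid library given intravenously […] to NHPs (2-4 years) and BALB/c or C57Bl/6 mice (n=3, 6-8 weeks). After e.g. 28 days, tissue RNA was RT-PCR amplified and NGS-sequenced; values are fold enrichment of each variant relative to wild-type AAV9.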

brain [2] = experiment: NGS fold enrichment of synthetic library (passage 3) in C57Bl/6 mice, first cross-species screen; format: in vivo
Procedure, shortened: as §1

brain [3] = experiment: NGS fold enrichment of synthetic library (passage 3) in BALB/c mice, first cross-species screen; format: in vivo
Procedure, shortened: as §1

[4] = RNA from spinal cord of NHPs, NGS
[5] = RNA from brain of C57Bl/6 mice, NGS
[6] = RNA from brain of BALB/c mice, NGS

Sequence | Fold enrichment over AAV9 in the brain of NHPs ([1]; RNA NGS, brain of NHPs) [fold] | Fold enrichment over AAV9 in the spinal cord of NHPs ([1]; RNA NGS, spinal cord of NHPs) [fold] | Fold enrichment over AAV9 in the brain of Mice (C57Bl/6) (brain [2]; RNA NGS, brain of C57Bl/6 mice) [fold] | Fold enrichment over AAV9 in the brain of Mice (BALB/c) (brain [3]; RNA NGS, brain of BALB/c mice) [fold] | Fold enrichment over AAV9 in the brain of NHPs ([1]; RNA from brain of NHPs, NGS) [fold] | Fold enrichment over AAV9 in the spinal cord of NHPs [1, 4] [fold] | Fold enrichment over AAV9 in the brain of Mice (C57Bl/6) (brain [2]; [5]) [fold] | Fold enrichment over AAV9 in the brain of Mice (BALB/c) (brain [3]; [6]) [fold]
GSHTLVVSGQNQQT | 1.069 | 1.535 | 0.671 | 0.748 | – | – | – | –
GSIAHVGTGQNQQT | 1.696 | 1.264 | 0.837 | 1.045 | – | – | – | –
GSIAMTSHGQNQQT | – | – | – | – | 1.178 | 1.435 | 0.551 | 0.438
GSIGYAGQGQNQQT | 2.157 | 4.951 | 1.604 | 0.712 | – | – | – | –
GSIQYQSSGQNQQT | – | – | – | – | 1.147 | 2.601 | 1.074 | 1.191
GSITLIPSGQNQQT | 3.361 | 3.917 | 0.326 | 0.435 | – | – | – | –
GSKGVPTPGQNQQT | 2.625 | 1.292 | 1.452 | 0.459 | – | – | – | –
GSLDLGRSGQNQQT | – | – | – | – | 1.160 | 3.283 | 1.002 | 0.505
GSLFLATGGQNQQT | – | – | – | – | 1.220 | 0.000 | 0.775 | 0.485
GSLGNLQRGQNQQT | 1.003 | 0.895 | 0.947 | 0.385 | – | – | – | –
GSLHAGLSGQNQQT | – | – | – | – | 1.408 | 1.739 | 1.286 | 0.936
GSLHHDNHGQNQQT | 1.976 | 0.980 | 0.968 | 0.463 | – | – | – | –
GSLIGMQSGQNQQT | 1.656 | 6.783 | 0.797 | 0.392 | – | – | – | –
GSLKPTTLGQNQQT | 1.840 | 0.476 | 0.175 | 0.220 | – | – | – | –
GSLLISTSGQNQQT | 1.919 | 5.763 | 1.488 | 0.808 | – | – | – | –
GSLLQAHSGQNQQT | 2.182 | 1.008 | 0.575 | 0.748 | – | – | – | –
GSLLSAGMGQNQHT | 1.856 | 6.168 | 0.589 | 0.342 | – | – | – | –
GSLLTTASGQNQQT | 1.822 | 0.780 | 0.938 | 0.635 | – | – | – | –
GSLMDVHRGQNQQT | – | – | – | – | 1.150 | 0.387 | 1.009 | 0.238
GSLPRGTSDQNQQT | 2.362 | 0.000 | 0.453 | 0.495 | – | – | – | –
